The results in this text go back to patent publication US8354403B2, “Pyrrolidine derived beta 3 adrenergic receptor agonists” (Merck Sharp & Dohme Corp., priority 2009, dated 2013).

The target in the experiment is T1, human β3 adrenergic receptor (Homo sapiens, UniProt P13945).
T1 construct: expressed in transfected cells; host or cells: Chinese hamster ovary (CHO) cells, stably transfected
The experiment can be described thus: Beta-3 agonist in vitro functional assay: cAMP production (LANCE TR-FRET) in CHO cells stably transfected with the cloned β3 receptor. Format: cell-based. The procedure: Chinese hamster ovary (CHO) cells, stably transfected with the cloned β-adrenergic receptor (β1, β2 or β3) are harvested after 3 days of subculturing. Harvesting of cells is done with Enzyme-free Dissociation Media (Specialty Media). Cells are then counted and resuspended in assay buffer (Hank's Balanced salt solution supplemented with 5 mM HEPES, […]) containing a phosphodiesterase inhibitor (IBMX, 0.6 mM). The reaction is initiated by mixing 6,000 cells in 6 μL with 6 μL Alexa Fluor labeled cAMP antibody (LANCE™ kit) which is then added to an assay well containing 12 μL of compound (diluted in assay buffer to 2× final concentration). The reaction proceeds for 30 minutes at RT and is terminated by the addition of 24 ul detection buffer (LANCE™ kit). The assay plate is then incubated for 1 h at RT and time-resolved fluorescence measured on a Perkin Elmer Envision reader or equivalent. The unknown cAMP level is determined by comparing fluorescence levels to a cAMP standard curve.
The non-selective, full agonist β-adrenergic ligand isoproterenol is used at all three receptors to determine maximal stimulation. […] Data are analyzed using Microsoft Excel and Graphpad Prism or an internally developed data analysis software package.
In general terms: Cyclic AMP is a second messenger, typically raised through Gs and lowered through Gi signalling.

The mark [1] stands for this setting: Table 4, cAMP, CHO cells, read-out: Human β3 agonist functional activity.
Setting [2] is: Table 5, cAMP, CHO cells, read-out: Human β3 agonist functional activity.
Where [3] appears, read: Table 9, Beta-3 agonist in vitro functional assay, read-out: Human β3 agonist functional activity.
Setting [4] is: Table 12, human β3 functional activity given as ranges, read-out: Human β3 agonist functional activity.
Setting [5] is: Table 8, Beta-3 agonist in vitro functional assay, read-out: Human β3 agonist functional activity.
Setting [6] is: Table 10, Beta-3 agonist in vitro functional assay, read-out: Human β3 agonist functional activity.
The mark [7] stands for this setting: Table 11, cAMP, CHO cells, read-out: Human β3 agonist functional activity.

Where two headings read alike, the source gives them in different places.

T1 sequence (P13945 whole entry): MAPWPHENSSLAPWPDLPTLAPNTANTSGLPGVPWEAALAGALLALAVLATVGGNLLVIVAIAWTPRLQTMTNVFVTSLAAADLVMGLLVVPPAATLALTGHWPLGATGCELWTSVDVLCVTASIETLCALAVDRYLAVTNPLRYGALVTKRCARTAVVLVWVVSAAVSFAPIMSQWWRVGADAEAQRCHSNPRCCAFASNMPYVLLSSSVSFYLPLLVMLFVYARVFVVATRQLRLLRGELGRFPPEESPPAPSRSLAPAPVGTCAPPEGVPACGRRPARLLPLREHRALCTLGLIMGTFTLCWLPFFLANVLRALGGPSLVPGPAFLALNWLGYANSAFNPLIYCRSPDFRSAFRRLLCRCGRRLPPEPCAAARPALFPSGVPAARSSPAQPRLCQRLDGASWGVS

On to `O=C(c1ccc(C[C@@H]2CC[C@H]([C@H](O)c3ccccc3)N2)cc1)N1CCC2c3cccnc3OC2C1` (stereo partly drawn) [Example 58], for which the EC50 under setting [1] was 10 to 99.9 nM.

As for `O=C(c1ccc(C[C@@H]2CC[C@H]([C@H](O)c3cccnc3)N2)cc1)N1CCC(N2C(=O)OCc3ccccc32)CC1` [Example 71], the EC50 under setting [2] lay within 1 to 9.9 nM. As to `O=C(c1ccc(C[C@@H]2CC[C@H]([C@H](O)c3ccccc3)N2)cc1)N1CCN(c2nsc3ccccc23)CC1` [Example 386], under setting [3], the EC50 fell in the range of 10 to 99.9 nM. Consider `O=C(c1ccc(C[C@@H]2CC[C@H]([C@H](O)c3ccccc3)N2)cc1)N1CCC(n2cnnc2)CC1` [Example 91], for which the EC50 under setting [2] lay in the range of 100 to 999 nM. For `CCOC(=O)C1(S(C)(=O)=O)CCCN(C(=O)c2ccc(C[C@@H]3CC[C@H]([C@H](O)c4ccccc4)N3)cc2)C1` (stereo partly drawn) [Example 36], under setting [1], the EC50 lay in the range of 10 to 99.9 nM. Take `C[C@@H]1CN(C(=O)c2ccc(C[C@@H]3CC[C@H]([C@H](O)c4ccccc4)N3)cc2)CC[C@H]1n1cccn1` [Example 61]: under setting [1], the EC50 was in the range of 100 to 999 nM.

`CS(=O)(=O)c1ccccc1OC1CCN(C(=O)c2ccc(C[C@@H]3CC[C@H]([C@H](O)c4ccccc4)N3)cc2)CC1` [Example 156]: the EC50 under setting [2] fell in the range of 10 to 99.9 nM. On to `O=C(c1ccc(C[C@@H]2CC[C@H]([C@H](O)c3ccccc3)N2)cc1)N1CCC(c2cscn2)CC1` [Example 66, (R)-phenyl[(2R,5S)-5-(4-{[4-(1,3-thiazol-4-yl)-piperidin-1-yl]carbonyl}benzyl)pyrrolidine-2-yl]methanol], for which, where the note is “given as a range, cAMP, CHO cells, read-out: human β3 functional activity”, the EC50 lay within 10 to 99.9 nM. With `Cn1ccnc1CN1CCN(C(=O)c2ccc(C[C@@H]3CC[C@H]([C@H](O)c4ccccc4)N3)cc2)CC1` [Example 396], the EC50 under setting [3] lay within 100 to 999 nM.

For `O=C(c1ccc(CC2CCC(C(O)c3cccnc3)N2)cc1)N1CCC2(CC1)C(=O)NCC2c1ccc(F)cc1` (single isomer, unassigned) [Example 556], the EC50 under setting [4] fell in the range of 1 to 9.9 nM.

On to `O=C(c1ccc(C[C@@H]2CC[C@H]([C@H](O)c3ccccc3)N2)cc1)N1CCCC1c1nccs1` (stereo partly drawn) [Example 15], for which the EC50 under setting [1] was in the range of 100 to 999 nM. `O=C(OCc1ccccc1)C1C2CN(C(=O)c3ccc(C[C@@H]4CC[C@H]([C@H](O)c5ccccc5)N4)cc3)CC21` (stereo partly drawn) [Example 229]: the EC50 (Table 7, cAMP, CHO cells, ranges as given for Tables 6 and 7, read-out: Human β3 agonist functional activity) is < 1 nM. On to `O=C1OC2(CCN(C(=O)c3ccc(C[C@@H]4CC[C@H]([C@H](O)c5ccccc5)N4)cc3)CC2)c2ccncc21` [Example 285], for which the EC50 under setting [5] was in the range of 10 to 99.9 nM. Consider `O=C(c1ccc(C[C@@H]2CC[C@H]([C@H](O)c3ccccc3)N2)cc1)N1CCC(c2ncccn2)CC1` [Example 114], for which, under setting [2], the EC50 lay in the range of 100 to 999 nM. For the molecule `O=C(c1ccc(C[C@@H]2CC[C@H]([C@H](O)c3ccccc3)N2)cc1)N1CCC2(C=Cc3ccccc3S2(=O)=O)CC1` [Example 337], under setting [5], the EC50 is 1 to 9.9 nM.

Consider `CC(c1nn[nH]n1)N1CCN(C(=O)c2ccc(C[C@@H]3CC[C@H]([C@H](O)c4ccccc4)N3)cc2)CC1` (stereo partly drawn) [Example 423], for which the EC50 under setting [3] was in the range of 10 to 99.9 nM. Regarding `O=C(c1ccc(C[C@@H]2CC[C@H]([C@H](O)c3ccccc3)N2)cc1)N1CCN(c2ncccc2-c2ccc(F)cc2)CC1` [Example 369], under setting [3], the EC50 was in the range of 10 to 99.9 nM.

Turning to `CC(C(=O)N1CCSC1)N1CCN(C(=O)c2ccc(C[C@@H]3CC[C@H]([C@H](O)c4ccccc4)N3)cc2)CC1` (stereo partly drawn) [Example 481], the EC50 under setting [6] fell in the range of 100 to 999 nM.

As for `CC(C(=O)N1CCOCC1)N1CCN(C(=O)c2ccc(C[C@@H]3CC[C@H]([C@H](O)c4ccccc4)N3)cc2)CC1` (stereo partly drawn) [Example 499], the EC50 under setting [6] lay within 100 to 999 nM. Regarding `Cn1nnnc1CN1CCN(C(=O)c2ccc(C[C@@H]3CC[C@H]([C@H](O)c4ccccc4)N3)cc2)CC1` [Example 399], the EC50 under setting [3] fell in the range of 10 to 99.9 nM.

With `O=C(c1ccc(C[C@@H]2CC[C@H]([C@H](O)c3ccccc3)N2)cc1)N1CCC2(CC1)c1ccccc1CS2(=O)=O` [Example 302], under setting [5], the EC50 was in the range of 10 to 99.9 nM.

On to `CC(C(=O)N1CCCC2(CCO2)C1)N1CCN(C(=O)c2ccc(C[C@@H]3CC[C@H]([C@H](O)c4ccccc4)N3)cc2)CC1` (stereo partly drawn) [Example 495], for which the EC50 under setting [6] lay in the range of 10 to 99.9 nM.

Regarding `O=C1CC2(CCN(C(=O)c3ccc(C[C@@H]4CC[C@H]([C@H](O)c5cccnc5)N4)cc3)CC2)Sc2ccccc21` [Example 327], the EC50 under setting [5] is 10 to 99.9 nM. Regarding `CC(C(=O)N1CCCCC1C)N1CCN(C(=O)c2ccc(C[C@@H]3CC[C@H]([C@H](O)c4ccccc4)N3)cc2)CC1` (stereo partly drawn) [Example 485], the EC50 under setting [6] lay in the range of 10 to 99.9 nM. On to `CCc1noc(CNC(=O)C(C)N2CCN(C(=O)c3ccc(C[C@@H]4CC[C@H]([C@H](O)c5ccccc5)N4)cc3)CC2)n1` (stereo partly drawn) [Example 465], for which the EC50 under setting [6] was 10 to 99.9 nM. Turning to `O=C(c1ccc(C[C@@H]2CC[C@H]([C@H](O)c3ccccc3)N2)cc1)N1C2CCC1CN(c1nccs1)C2` [Example 543], the EC50 under setting [7] lay in the range of 10 to 99.9 nM. Take `O=C(c1ccc(C[C@@H]2CC[C@H]([C@H](O)c3ccccc3)N2)cc1)N1Cc2cncnc2C1` [Example 25]: the EC50 under setting [1] was 100 to 999 nM.

With `O=C(c1ccc(C[C@@H]2CC[C@H]([C@H](O)c3ccccc3)N2)cc1)N1CCC(n2c(=O)[nH]c3nc(F)ccc32)CC1` [Example 73], the EC50 under setting [2] lay within 10 to 99.9 nM.

Consider `CC1(C)COC(=O)C12CCN(C(=O)c1ccc(C[C@@H]3CC[C@H]([C@H](O)c4ccccc4)N3)cc1)CC2` [Example 298], for which, under setting [5], the EC50 is 1 to 9.9 nM.

As for `Cc1cnnn1C1CCN(C(=O)c2ccc(C[C@@H]3CC[C@H]([C@H](O)c4ccccc4)N3)cc2)CC1` [Example 96], the EC50 under setting [2] was 100 to 999 nM. For the molecule `CC(=O)N1CCN(C(=O)c2ccc(C[C@@H]3CC[C@H]([C@H](O)c4ccccc4)N3)cc2)CC1` [Example 343], the EC50 under setting [3] was in the range of 100 to 999 nM. Consider `O=C(OCc1ccccc1)C1CCCN(C(=O)c2ccc(C[C@@H]3CC[C@H]([C@H](O)c4ccccc4)N3)cc2)C1` (stereo partly drawn) [Example 32], for which, under setting [1], the EC50 was 10 to 99.9 nM. With `O=C(c1ccc(C[C@@H]2CC[C@H]([C@H](O)c3ccccc3)N2)cc1)N1CCC2(CC1)OC(C1CC1)c1ccccc12` (stereo partly drawn) [Example 308], the EC50 under setting [5] lay in the range of 10 to 99.9 nM. `O=C(c1ccc(C[C@@H]2CC[C@H]([C@H](O)c3ccccc3)N2)cc1)N1CC2CC1CN2c1nccs1` (stereo partly drawn) [Example 544]: the EC50 under setting [7] was in the range of 999 to 3000 nM. `CC1(O)CCN(C(=O)c2ccc(C[C@@H]3CC[C@H]([C@H](O)c4ccccc4)N3)cc2)C1` (stereo partly drawn) [Example 12]: the EC50 under setting [1] was in the range of 100 to 999 nM. With `CCOC(=O)C1(F)CCCN(C(=O)c2ccc(C[C@@H]3CC[C@H]([C@H](O)c4ccccc4)N3)cc2)C1` (stereo partly drawn) [Example 37], under setting [1], the EC50 is 100 to 999 nM. On the same count and under the same terms, with `O=C(c1ccc(C[C@@H]2CC[C@H]([C@H](O)c3ccccc3)N2)cc1)N1CC2CCNC2C1` (stereo partly drawn) [Example 24] the figure was 100 to 999 nM; with `COc1ccc2c(c1)C(=O)CC1(CCCN(C(=O)c3ccc(C[C@@H]4CC[C@H]([C@H](O)c5cccnc5)N4)cc3)C1)O2` (stereo partly drawn) [Example 42], 100 to 999 nM. As for `CC(c1ncc2ccccc2n1)N1CCN(C(=O)c2ccc(C[C@@H]3CC[C@H]([C@H](O)c4ccccc4)N3)cc2)CC1` (mixture of isomers) [Example 572], the EC50 under setting [4] was in the range of 1 to 9.9 nM. `O=C(c1ccc(C[C@@H]2CC[C@H]([C@H](O)c3ccccc3)N2)cc1)N1CCN(Cc2nccs2)CC1` [Example 394]: the EC50 under setting [3] is 10 to 99.9 nM.

Consider `O=C(c1ccc(C[C@@H]2CC[C@H]([C@H](O)c3ccccc3)N2)cc1)N1CCC(Cn2cccnc2=O)CC1` [Example 150], for which the EC50 under setting [2] lay within 100 to 999 nM. Same read-out and setting: with `O=C(c1ccc(C[C@@H]2CC[C@H]([C@H](O)c3ccccc3)N2)cc1)N1CCC(n2ncnn2)CC1` [Example 102] the figure was 1 to 9.9 nM.
